Where two headings read alike, the source gives them in different places.
Key:
[1] = target: T1, hTLR8 (human Toll-like receptor 8) (Homo sapiens, UniProt Q9NR97); assay: HEK-Blue hTLR8 reporter assay (QUANTI-Blue, OD650); type: cell-based; details: HEK-Blue hTLR8 cells, 24 h, read-out: Reporter assay TLR8 EC50
T1 construct: host or cells: HEK-Blue hTLR8 (HEK293-derived reporter cells)
T1 sequence (Q9NR97 27-1041): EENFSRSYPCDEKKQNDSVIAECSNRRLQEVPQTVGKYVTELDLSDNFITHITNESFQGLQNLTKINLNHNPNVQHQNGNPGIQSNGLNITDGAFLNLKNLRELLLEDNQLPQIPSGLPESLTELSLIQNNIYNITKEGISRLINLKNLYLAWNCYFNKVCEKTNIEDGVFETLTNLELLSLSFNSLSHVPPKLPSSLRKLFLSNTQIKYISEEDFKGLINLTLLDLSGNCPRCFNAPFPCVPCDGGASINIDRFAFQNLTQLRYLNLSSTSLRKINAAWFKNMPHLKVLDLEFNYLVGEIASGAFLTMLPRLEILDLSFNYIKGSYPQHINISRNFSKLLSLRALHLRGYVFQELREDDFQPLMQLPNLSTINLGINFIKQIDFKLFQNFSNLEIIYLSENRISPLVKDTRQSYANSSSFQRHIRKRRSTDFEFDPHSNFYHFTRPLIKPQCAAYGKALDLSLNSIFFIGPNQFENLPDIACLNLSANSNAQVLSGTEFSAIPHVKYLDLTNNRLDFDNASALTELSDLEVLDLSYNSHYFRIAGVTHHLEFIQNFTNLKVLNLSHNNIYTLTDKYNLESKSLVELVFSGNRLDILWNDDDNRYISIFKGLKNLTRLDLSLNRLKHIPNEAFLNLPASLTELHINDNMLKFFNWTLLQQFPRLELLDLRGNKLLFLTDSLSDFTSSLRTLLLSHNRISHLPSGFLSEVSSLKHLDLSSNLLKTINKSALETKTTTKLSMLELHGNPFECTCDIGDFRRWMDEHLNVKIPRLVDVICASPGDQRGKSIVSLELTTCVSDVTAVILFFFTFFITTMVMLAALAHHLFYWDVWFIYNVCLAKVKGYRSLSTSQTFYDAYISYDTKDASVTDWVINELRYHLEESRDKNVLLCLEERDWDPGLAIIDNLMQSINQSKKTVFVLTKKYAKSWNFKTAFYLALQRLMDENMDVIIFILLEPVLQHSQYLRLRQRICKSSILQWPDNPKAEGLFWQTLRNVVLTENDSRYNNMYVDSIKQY
Description: In this example, the agonistic activity of the compounds of the present application on hTLR7 (human Toll-like receptor 7) and hTLR8 (human Toll-like receptor 8) was assessed; the induction activity of the compounds on human PBMCs for TNF-α and IFN-α production was assessed in human PBMCs (human peripheral blood mononuclear cells).
All compounds were formulated in DMSO into 30 mM stock solutions and preserved at 4° C. The reference compound ([…], Cat. No. tlrl-r848-5) was purchased from InvivoGen and formulated into a 5 mg/mL stock solution in DMSO and preserved in a freezer at −20° C. HEK-Blue hTLR7 and HEK-Blue hTLR8 cell lines were purchased from InvivoGen, and human PBMCs were purchased from Shanghai Saily Biotechnology Co., Ltd. (Cat. No. XFB—HP100B).
The major instruments used in this study were multifunctional microplate reader Flexstation III (Molecular Device), Envision (Perkin Elmer), M2e (Molecular Device), and Echo555 (Labcyte). 2.1 Agonistic activity of compounds on hTLR7 (human Toll-like receptor 7) and hTLR8 (human Toll-like receptor 8)
Compound dilution: The compounds of the present application are diluted in DMSO, for example, to about 15 mM. The reference compound was added to the plates in sequence after dilution. The compounds were serially 3-fold diluted to 10 concentrations and added to 96-well plates in duplicate.
For the negative control wells, DMSO was added at 0.2 μL/well, and the reference compound was added to the positive control wells. The final concentration of DMSO was 0.2%.
Cell plating: When an 80% confluence of HEK Blue hTLR7&8 cells in the culture flask was observed under a microscope, the culture medium was discarded, 10 mL of detection medium was added, and the cells were separated by pipetting. The cells were counted on a cytometer and diluted to 500,000 cells/mL. The cells were plated at 100 μL/50,000 cells/well in the 96-well plates containing the compounds. The compounds and cells were co-incubated at 37° C. in a 5% CO2 incubator for 24 hours.
Compound activity detection: 20 μL of cell supernatant was taken from each well and added to a plate containing QUANTI-Blue™ reagent at 180 μL/well. The plate was incubated at 37° C. for 1 hour, and the absorbance at 650 nm (OD650) was measured on the multifunctional microplate reader Flexstation III.
Compound activity data analysis: The OD650 values were analyzed by GraphPad Prism software and fitted to give dose-response curves of the compounds. The EC50 values of compounds were calculated.

[2] = test system: IFN-α production in human PBMCs; assay: Induction of IFN-α in human PBMCs (ELISA); type: cell-based; details: PBMC, 24 h, read-out: PBMC assay IFNa EC50
Description: In this example, the induction activity of the compounds of the present application on human PBMCs for TNF-α and IFN-α production was assessed in human PBMCs (human peripheral blood mononuclear cells). The human PBMCs were purchased from Shanghai Saily Biotechnology Co., Ltd. (Cat. No. XFB—HP100B). PBMC cells were treated with the compounds. The compounds of the present application are diluted in DMSO, for example, to about 15 mM. The reference compound was added to the plates in sequence after diluted to 5 mg/mL. The compounds were serially 3- or 4-fold diluted to 8 concentrations and added to plates in duplicate (Table 2-1 for serial 3-fold dilutions and Table 2-2 for serial 4-fold dilutions). For the negative control wells, DMSO was added at 0.4 μL/well, and a 5 mg/mL reference compound solution was added to the positive control wells at 0.4 μL/well. The final concentration of DMSO was 0.2%. Frozen human PBMCs in cryopreservation tubes were quickly thawed in a 37° C. water bath and transferred into 50-mL centrifuge tubes. Prewarmed RPMI1640 medium was gradually added and the mixture was well mixed and centrifuged for 15 min before the supernatant was discarded. The cells were resuspended in a culture medium and counted. The cell suspension was adjusted to 2.5×10^6 cells/mL with the culture medium. Diluted cells were added at 200 μL/500,000 cells/well in 96-well plates containing the compounds. The cell plates were incubated at 37° C./5% CO2 for 24 h.
The plate was washed 4 times, then the detection antibody was added. […] The plate was washed 4 additional times, then the enzyme was added. […] Termination of reaction: The reaction was terminated by quickly adding the stop solution at 100 μL/well. Plate reading: The reading at wavelength 450 nm was detected by an M2e instrument within 10 min after the termination.
Compound activity data analysis: The OD450 values were converted to TNF-α and IFN-α contents by GraphPad Prism software analysis and fitted to give dose-response curves of the compounds. The EC50 values for the compounds were calculated, where the Emax values are the maximal values for TNF-α and IFN-α.

[3] = serial 4-fold dilutions, class symbols

| SMILES | EC50 [1] [nM] | EC50 ([2]; serial 3-fold dilutions) [nM] | EC50 ([1]; class symbols) [nM] | EC50 [2, 3] [nM] |
| --- | --- | --- | --- | --- |
| CCCN(OCc1ccc(N)cc1)C(=O)C1=Cc2ccc(-c3cncc(CO)c3)cc2N=C(N)C1 [Compound 15] | < 1.5 | 3.02 | – | – |
| CCCN(OCc1ccc(N)cc1)C(=O)C1=Cc2ccc(-c3cncc(C(=O)O)c3)cc2N=C(N)C1 [Compound 32] | – | – | 10 to 100 | 50 to 500 |
| CCCN(OCc1ccc(N)cc1)C(=O)C1=Cc2ccc(-c3cccc(S(N)(=O)=O)c3)cc2N=C(N)C1 [Compound 35] | < 1.5 | 2.95 | – | – |
| CCCN(OCc1ccc(N)cc1)C(=O)C1=Cc2ccc(-c3cncc(S(N)(=O)=O)c3)cc2N=C(N)C1 [Compound 36] | 1.71 | 6.05 | – | – |
| CCCN(OCc1ccc(N)cc1)C(=O)C1=Cc2ccc(C(=O)N3CC(CO)C3)cc2N=C(N)C1 [Compound 37] | – | – | 10 to 100 | > 500 |
| CCCN(OCc1ccc(N)cc1)C(=O)C1=Cc2ccc(C(=O)Nc3cccnc3)cc2N=C(N)C1 [Compound 40] | 2.5 | 1320 | – | – |
| CCCN(OCc1ccc(N)cc1)C(=O)C1=Cc2ccc(-c3cccc(S(=O)(=O)N4CC(O)C4)c3)cc2N=C(N)C1 [Compound 41] | 5.37 | 31.1 | – | 50 to 500 |
| CCCN(OCc1ccc(N)cc1)C(=O)C1=Cc2ccc(-c3ccc(C(=O)N4CC[C@@H](O)C4)cc3)cc2N=C(N)C1 [Compound 42] | – | 48.3 | 10 to 100 | > 500 |
| CCCN(OCc1ccc(N)cc1)C(=O)C1=Cc2ccc(-c3ccc4c(c3)C(=O)OC4)cc2N=C(N)C1 [Compound 43] | < 1.5 | 29.6 | – | – |
| NC1=Nc2cc(-c3cncc(CO)c3)ccc2C=C(C(=O)N(CC2CC2)OCc2ccc(N)cc2)C1 [Compound 45] | 2.3 | 7.25 | – | – |
| CCCN(OCc1ccc(N)cc1)C(=O)C1=Cc2ccc(C(=O)N3CCC(O)C3)cc2N=C(N)C1 (stereo not shown) [Compound 46] | – | – | 10 to 100 | 50 to 500 |
| CCCN(OCc1ccc(N)cc1)C(=O)C1=Cc2ccc(C(=O)N3CCOC(CO)C3)cc2N=C(N)C1 (stereo not shown) [Compound 47] | – | – | 10 to 100 | 50 to 500 |
| CCCN(OCc1ccc(N)cc1)C(=O)C1=Cc2ccc(C(=O)NCCO)cc2N=C(N)C1 [Compound 48] | – | – | 10 to 100 | > 500 |
| CCCN(OCc1ccc(N)cc1)C(=O)C1=Cc2ccc(-c3cncc(Cl)c3)cc2N=C(N)C1 [Compound 49] | 6.6 | 48.2 | – | – |
| CCCN(OCc1ccc(N)cc1)C(=O)C1=Cc2ccc(-c3cncc(C#N)c3)cc2N=C(N)C1 [Compound 50] | 1.5 | 41.5 | – | – |
| CCCN(OCc1ccc(N)cc1)C(=O)C1=Cc2ccc(-c3ccc(C#N)nc3)cc2N=C(N)C1 [Compound 51] | 5.6 | 142 | – | – |

| SMILES | EC50 [1] [nM] | EC50 ([2]; serial 3-fold dilutions) [nM] | EC50 ([1]; class symbols) [nM] | EC50 [2, 3] [nM] |
| --- | --- | --- | --- | --- |
| CCCN(OCc1ccc(N)cc1)C(=O)C1=Cc2ccc(-c3cncc(N)c3)cc2N=C(N)C1 [Compound 52] | 4.4 | 6.58 | – | – |
| CCCN(OCc1ccc(N)cc1)C(=O)C1=Cc2ccc(-c3cncc(C(F)(F)F)c3)cc2N=C(N)C1 [Compound 53] | – | – | 10 to 100 | 50 to 500 |
| CCCN(OCc1ccc(N)cc1)C(=O)C1=Cc2ccc(-c3cncc(CN)c3)cc2N=C(N)C1 [Compound 54] | < 1.5 | 5.35 | – | – |
| CCCN(OCc1ccc(N)cc1)C(=O)C1=Cc2ccc(-c3ccc(N4CCOCC4)nc3)cc2N=C(N)C1 [Compound 55] | 2.3 | 43.4 | – | – |
| CCCN(OCc1ccc(N)cc1)C(=O)C1=Cc2ccc(-c3cncc(S(C)(=O)=O)c3)cc2N=C(N)C1 [Compound 56] | < 1.5 | 28.5 | – | – |
| NC1=Nc2cc(-c3cncc(CO)c3)ccc2C=C(C(=O)N(CCC(F)(F)F)OCc2ccc(N)cc2)C1 [Compound 58] | – | – | ≤ 10 | 10 to 50 |
| CCCN(OCc1ccc(N)cc1Cl)C(=O)C1=Cc2ncc(-c3cncc(CO)c3)cc2N=C(N)C1 [Compound 59] | – | – | ≤ 10 | 50 to 500 |
| CCCN(OCc1ccc(N)cc1OC)C(=O)C1=Cc2ncc(-c3cncc(CO)c3)cc2N=C(N)C1 [Compound 60] | – | – | ≤ 10 | 50 to 500 |
| CCCN(OCc1ccc(N)cc1)C(=O)C1=Cc2ncc(-c3cncc(CO)c3)cc2N=C(N)C1 [Compound 61] | – | – | ≤ 10 | 10 to 50 |
| CCCN(OCc1ccc(N)cc1)C(=O)C1=Cc2ccc(-c3cncc(CO)c3)nc2N=C(N)C1 [Compound 62] | – | – | ≤ 10 | ≤ 10 |
| CCCN(OCc1ccc(N)cc1)C(=O)C1=Cc2ccc(-c3cnc4c(c3)C(=O)OC4)nc2N=C(N)C1 [Compound 63] | – | – | ≤ 10 | 10 to 50 |
| CCCN(OCc1ccc(N)cc1)C(=O)C1=Cc2ccc(-c3cccc(S(=O)(=O)NCCO)c3)cc2N=C(N)C1 [Compound 64] | – | – | ≤ 10 | 10 to 50 |
| CCCN(OCc1ccc(N)cc1)C(=O)C1=Cc2ccc(-c3cccc(S(=O)(=O)N4CCC(O)CC4)c3)cc2N=C(N)C1 [Compound 66] | – | – | ≤ 10 | 50 to 500 |
| CCCN(OCc1ccc(N)cc1)C(=O)C1=Cc2ccc(-c3cccc(S(=O)(=O)N4CCNCC4)c3)cc2N=C(N)C1 [Compound 67] | – | – | ≤ 10 | > 500 |
| CCCN(OCc1ccc(N)cc1)C(=O)C1=Cc2ccc(-c3cccc(S(=O)(=O)N4CCOCC4)c3)cc2N=C(N)C1 [Compound 68] | – | – | ≤ 10 | 10 to 50 |

From patent US20250059141A1, “TLR MODULATOR AND USE THEREOF” (DUALITY BIOLOGICS (SUZHOU) CO., LTD., priority 2021, published 2025)
